BindingDB's records for doi:10.1021/jm020384z (Aventis Pharmaceuticals, 2003)

Tests used:
Coagulation factor X = Coagulation factor X (Homo sapiens, UniProt P00742); experiment: In vitro binding affinity for human Coagulation factor X
Prothrombin = Prothrombin (Homo sapiens, UniProt P00734); experiment: Binding affinity towards thrombin
Serine protease 1 = Serine protease 1 (Homo sapiens, UniProt P07477); experiment: Binding affinity towards trypsin
Sequence of Serine protease 1 (P07477 whole entry): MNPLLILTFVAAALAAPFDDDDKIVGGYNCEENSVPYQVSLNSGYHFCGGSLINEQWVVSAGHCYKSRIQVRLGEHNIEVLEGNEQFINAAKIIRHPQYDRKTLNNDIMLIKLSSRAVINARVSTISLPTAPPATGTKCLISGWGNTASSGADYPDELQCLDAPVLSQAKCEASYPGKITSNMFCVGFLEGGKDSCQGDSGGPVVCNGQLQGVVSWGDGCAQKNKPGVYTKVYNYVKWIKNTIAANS

Sequence of Coagulation factor X (P00742 41-179 limits assumed): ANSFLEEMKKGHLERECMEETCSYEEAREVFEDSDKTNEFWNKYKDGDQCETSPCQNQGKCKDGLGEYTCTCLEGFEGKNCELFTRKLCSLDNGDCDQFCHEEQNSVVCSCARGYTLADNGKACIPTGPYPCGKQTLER
Sequence of Coagulation factor X (P00742 235-488 limits assumed): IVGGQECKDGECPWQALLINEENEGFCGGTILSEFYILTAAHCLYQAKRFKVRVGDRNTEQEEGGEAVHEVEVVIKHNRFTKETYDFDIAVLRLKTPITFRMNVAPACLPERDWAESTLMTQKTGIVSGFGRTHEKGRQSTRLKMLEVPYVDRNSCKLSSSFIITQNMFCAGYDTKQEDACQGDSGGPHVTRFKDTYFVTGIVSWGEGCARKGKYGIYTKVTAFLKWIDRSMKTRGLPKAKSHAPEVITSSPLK

| SMILES | Ki (Coagulation factor X) | Ki (Prothrombin) | Ki (Serine protease 1) |
| --- | --- | --- | --- |
| O=C1CN(S(=O)(=O)c2sc3ccccc3c2Cl)CCN1Cc1cc2cnccc2[nH]1 [4-(3-Chloro-benzo[b]thiophene-2-sulfonyl)-1-(1H-pyrrolo[3,2-c]pyridin-2-ylmethyl)-piperazin-2-one] | > 1200 nM |  |  |
| O=C1CN(S(=O)(=O)c2cc3ncccc3s2)CCN1Cc1cc2cnccc2[nH]1 [1-(1H-Pyrrolo[3,2-c]pyridin-2-ylmethyl)-4-(thieno[3,2-b]pyridine-2-sulfonyl)-piperazin-2-one] | > 1200 nM |  |  |
| O=C1CN(S(=O)(=O)c2ccc(-c3ccc(Cl)cc3)cc2)CCN1Cc1cc2cnccc2[nH]1 [4-(4'-Chloro-biphenyl-4-sulfonyl)-1-(1H-pyrrolo[3,2-c]pyridin-2-ylmethyl)-piperazin-2-one] | > 1200 nM |  |  |
| O=C1CN(S(=O)(=O)c2cc3ccc(Cl)cc3s2)CCN1Cc1cc2c(=O)[nH]ccc2[nH]1 [2-[4-(6-Chloro-benzo[b]thiophene-2-sulfonyl)-2-oxo-piperazin-1-ylmethyl]-1,5-dihydro-pyrrolo[3,2-c]pyridin-4-one] | > 1200 nM | > 3.9 µM | > 2900 nM |
| O=C1CN(S(=O)(=O)c2cc3cccnc3s2)CCN1Cc1cc2cnccc2[nH]1 [1-(1H-Pyrrolo[3,2-c]pyridin-2-ylmethyl)-4-(thieno[2,3-b]pyridine-2-sulfonyl)-piperazin-2-one] | > 1200 nM |  |  |

The remaining lines, values ahead:

| Ki (Coagulation factor X) | Ki (Prothrombin) | Ki (Serine protease 1) | SMILES |
| --- | --- | --- | --- |
| > 1200 nM | > 3.9 µM | > 2900 nM | O=C1CN(S(=O)(=O)c2cc3ccc(Cl)cc3s2)CCN1Cc1nc2ccncc2[nH]1 [4-(6-Chloro-benzo[b]thiophene-2-sulfonyl)-1-(1H-imidazo[4,5-c]pyridin-2-ylmethyl)-piperazin-2-one] |
| > 1200 nM |  |  | COc1cc(C=CS(=O)(=O)N2CCN(Cc3cc4cnccc4[nH]3)C(=O)C2)sc1Cl [4-[2-(5-Chloro-4-methoxy-thiophen-2-yl)-ethenesulfonyl]-1-(1H-pyrrolo[3,2-c]pyridin-2-ylmethyl)-piperazin-2-one] |
| > 1200 nM | > 3.9 µM | > 2900 nM | O=C1CN(S(=O)(=O)c2cc3ccc(Cl)cc3s2)CCN1Cc1cc2ncccc2[nH]1 [4-(6-Chloro-benzo[b]thiophene-2-sulfonyl)-1-(1H-pyrrolo[3,2-b]pyridin-2-ylmethyl)-piperazin-2-one] |
